This is an account of results in the OPERA property sets (Mansouri et al. 2018).

For `CCC1(C)C(=O)NC(=O)NC1=O`, the logP came out at 0.08.

`CCC1(CC=C(C)C)C(=O)NC(=O)NC1=O` displayed a lipophilicity (logP) of 1.73.

`O=C1NC(=S)NC(=O)C12CCCCC2`: the lipophilicity (logP) is 1.78.

For the molecule `O=C1NC(=O)C2(CCC2)C(=O)N1`, the lipophilicity (logP) was -0.27.

Regarding `O=C1NC(=O)C2(CCCCCCC2)C(=O)N1`, the log partition coefficient (logP) is 1.79.

With `O=C1NC(=O)C(c2ccccc2)(c2ccccc2)C(=O)N1`, the logP came to 1.96.

`O=C1NC(=O)C2(CCCCCC2)C(=O)N1` gave a logP of 1.36.

`O=C1NC(=O)C2(CCCC2)C(=O)N1`: the log partition coefficient (logP) stood at 0.24.

As to `O=C1NC(=O)C2(CCCCC2)C(=O)N1`, the lipophilicity (logP) is 0.91.

Take `CC(C)=CCC1(C(C)C)C(=O)NC(=O)NC1=O`: the logP turned out to be 2.23.

The molecule `CC1(c2ccccc2)C(=O)NC(=O)NC1=O` showed a lipophilicity (logP) of 0.91.

On to `O=C1NC(=O)C2(CC2)C(=O)N1`, for which the log partition coefficient (logP) was -0.53.

With `C=CCC1(C)C(=O)NC(=O)NC1=O`, the logP is 0.36.

Molecule `O=C1NC(=O)C2(CCCCCCCCCCC2)C(=O)N1` gave a lipophilicity (logP) of 3.51.

`O=C1NC(=O)C2(CCCCCCCCCC2)C(=O)N1`: the logP worked out at 3.15.

The molecule `CC(C)=CCC1(C(C)(C)C)C(=O)NC(=O)NC1=O` showed a lipophilicity (logP) of 2.56.

`CC1(C)C(=O)NC(=O)NC1=O`: the logP is -0.44.
